This assay concerns the target Lethal factor (Bacillus anthracis) (UniProt P15917). Nature of the assay: Bacillus anthracis LF protease inhibitors, dose response, biochemical, multiplex microsphere (AID 651901). To be noted: multiplex microsphere LF protease cleavage assay, flow cytometry. For orientation: In flow cytometry, cells or beads pass a laser one at a time.

Among the data in PubChem BioAssay AID651901 (NMMLSC, 2012) are IC50 values, retold here.

Molecules are shown by their SMILES. Calls of active or inactive are those of the source. How the calls were made is not given here.

Chain of Lethal factor (Bacillus anthracis) (P15917 whole entry, looked up): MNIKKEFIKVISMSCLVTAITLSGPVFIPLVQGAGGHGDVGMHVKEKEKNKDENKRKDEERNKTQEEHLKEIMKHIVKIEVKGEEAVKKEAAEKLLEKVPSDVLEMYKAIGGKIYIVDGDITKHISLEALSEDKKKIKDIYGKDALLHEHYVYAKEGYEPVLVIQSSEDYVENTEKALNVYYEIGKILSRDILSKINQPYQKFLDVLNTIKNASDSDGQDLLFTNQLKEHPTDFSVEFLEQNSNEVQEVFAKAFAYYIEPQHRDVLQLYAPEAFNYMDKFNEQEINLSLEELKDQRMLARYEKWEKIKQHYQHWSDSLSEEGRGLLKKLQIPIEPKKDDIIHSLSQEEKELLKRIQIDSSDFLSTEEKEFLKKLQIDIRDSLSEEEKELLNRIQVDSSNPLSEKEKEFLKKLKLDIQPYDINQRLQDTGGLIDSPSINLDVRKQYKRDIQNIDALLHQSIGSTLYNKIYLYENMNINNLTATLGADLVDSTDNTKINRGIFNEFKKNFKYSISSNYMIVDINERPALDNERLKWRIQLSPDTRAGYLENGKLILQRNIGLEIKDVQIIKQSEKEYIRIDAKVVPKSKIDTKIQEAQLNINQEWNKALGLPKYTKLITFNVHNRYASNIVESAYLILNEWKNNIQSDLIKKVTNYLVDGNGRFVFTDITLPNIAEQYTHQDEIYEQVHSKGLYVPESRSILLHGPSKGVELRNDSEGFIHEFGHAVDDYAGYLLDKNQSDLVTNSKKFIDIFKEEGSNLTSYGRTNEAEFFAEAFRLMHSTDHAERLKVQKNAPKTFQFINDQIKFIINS

In general, IC50 refers to the concentration that gives 50% inhibition. Take `O=C(c1ccc(N2N=C(c3ccccc3)CC2c2ccccc2)cc1)N1CCCCC1` (centres undefined): the IC50 was > 20 µM (inactive).
As to `CS(=O)(=O)c1ccc(N2N=C(c3ccccc3)CC2c2ccccc2)cc1` (centres undefined), the IC50 is > 20 µM (inactive).
Consider `CS(=O)(=O)c1ccc(N2N=C(c3ccncc3)CC2c2ccccc2)cc1` (centres undefined), for which the IC50 is > 20 µM (inactive).
Turning to `O=C(c1ccc(N2N=C(c3ccccc3)CC2c2ccccc2)cc1)N1CCOCC1` (centres undefined), the IC50 is > 20 µM (inactive).
In the case of `COc1ccc(N2N=C(c3cccnc3)CC2c2ccccc2)cc1` (centres undefined), the IC50 is > 20 µM (inactive).
With `CS(=O)(=O)c1ccc(N2N=C(c3cccnc3)CC2c2ccccc2)cc1` (centres undefined) the figure was > 20 µM (inactive); with `CSc1ccc(C2=NN(c3ccc(S(C)(=O)=O)cc3)C(c3ccccc3)C2)cc1` (centres undefined), > 20 µM (inactive).
For `c1ccc(C2CC(c3ccncc3)=NN2c2ccccc2)cc1` (centres undefined) the value was > 20 µM (inactive); for `CC(C)NC(=O)c1ccc(N2N=C(c3ccccc3)CC2c2ccccc2)cc1` (centres undefined), > 20 µM (inactive).
Regarding `c1ccc(C2=NN(c3ccccc3)C(c3ccccc3)C2)cc1` (centres undefined), the IC50 is > 20 µM (inactive).
Consider `c1ccc(C2CC(c3cccnc3)=NN2c2ccccc2)cc1` (centres undefined), for which the IC50 is > 20 µM (inactive).
`CSc1ccc(C2=NN(c3ccc([N+](=O)[O-])cc3)C(c3ccccc3)C2)cc1` (centres undefined): the IC50 is 0.1 µM.
For `CNC(=O)c1ccc(N2N=C(c3ccccc3)CC2c2ccccc2)cc1` (centres undefined), the IC50 is > 20 µM (inactive).
With `CNC(=O)c1ccc(N2N=C(c3ccc(SC)cc3)CC2c2ccccc2)cc1` (centres undefined) the figure was > 20 µM (inactive).
For `CSc1ccc(C2=NN(c3ccc(S(N)(=O)=O)cc3)C(c3ccccc3)C2)cc1` (centres undefined), the IC50 was > 20 µM (inactive).
For `NS(=O)(=O)c1ccc(N2N=C(c3ccncc3)CC2c2ccccc2)cc1` (centres undefined) the value was > 20 µM (inactive); for `O=[N+]([O-])c1ccc(N2N=C(c3ccccc3)CC2c2ccccc2)cc1` (centres undefined), > 20 µM (inactive); for `CSc1ccc(C2=NN(c3ccccc3)C(c3ccccc3)C2)cc1` (centres undefined), > 20 µM (inactive).
As for `NS(=O)(=O)c1ccc(N2N=C(c3cccnc3)CC2c2ccccc2)cc1` (centres undefined), the IC50 was > 20 µM (inactive).
With `c1ccc(C2CC(c3ccccn3)=NN2c2ccccc2)cc1` (centres undefined) the figure was > 20 µM (inactive); with `CSc1ccc(C2=NN(c3ccc(C(=O)N4CCCCC4)cc3)C(c3ccccc3)C2)cc1` (centres undefined), > 20 µM (inactive); with `NS(=O)(=O)c1ccc(N2N=C(c3ccccc3)CC2c2ccccc2)cc1` (centres undefined), > 20 µM (inactive).
Turning to `COc1ccc(N2N=C(c3ccccn3)CC2c2ccccc2)cc1` (centres undefined), the IC50 is > 20 µM (inactive).
For `COc1ccc(N2N=C(c3ccc(SC)cc3)CC2c2ccccc2)cc1` (centres undefined), the IC50 was > 20 µM (inactive).
As for `COc1ccc(N2N=C(c3ccccc3)CC2c2ccccc2)cc1` (centres undefined), the IC50 is > 20 µM (inactive).
As to `c1ccc(-c2cc(-c3ccccc3)n(-c3ccccc3)n2)cc1`, the IC50 is > 20 µM (inactive).
For `COc1ccc(N2N=C(c3ccncc3)CC2c2ccccc2)cc1` (centres undefined) the value was > 20 µM (inactive).
As to `CSc1ccc(C2=NN(c3ccc(C(=O)N4CCOCC4)cc3)C(c3ccccc3)C2)cc1` (centres undefined), the IC50 was > 20 µM (inactive).
For the compound `CC(C)CNC(=O)c1ccc(N2N=C(c3ccccc3)CC2c2ccccc2)cc1` (centres undefined), the IC50 is > 20 µM (inactive).
